The target of this experiment is T1, PimA (Mycolicibacterium smegmatis, UniProt A0QWG6).
T1 construct: recombinant from pET29a-pimA in E. coli BL21(DE3) pLysS; purified
T1 sequence (A0QWG6 1-386): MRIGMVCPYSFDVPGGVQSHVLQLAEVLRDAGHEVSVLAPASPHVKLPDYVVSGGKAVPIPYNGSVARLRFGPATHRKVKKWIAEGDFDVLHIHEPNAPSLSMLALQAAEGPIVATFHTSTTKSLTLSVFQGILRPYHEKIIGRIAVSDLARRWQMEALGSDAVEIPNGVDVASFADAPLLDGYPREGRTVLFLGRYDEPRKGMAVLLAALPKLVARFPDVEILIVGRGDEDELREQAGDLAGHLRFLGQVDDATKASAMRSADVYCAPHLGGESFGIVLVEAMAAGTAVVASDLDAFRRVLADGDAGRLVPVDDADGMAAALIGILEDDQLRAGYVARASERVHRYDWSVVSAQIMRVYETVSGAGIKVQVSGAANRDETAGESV
The experiment can be described thus: thermal unfolding by far-UV CD at […] nm. Type of experiment: binding. The note with it: 10 mM Tris-HCl, pH 7.5; 10 uM protein, ligand 1:15.

With `Nc1nc2c(ncn2[C@@H]2O[C@H](COP(=O)(O)OP(=O)(O)O)[C@@H](O)[C@H]2O)c(=O)[nH]1` [GDP], the Tm result is “after the addition of GDP, wild-type PimA, PimA^R144C, and PimA^R144C-TFA displayed a clear increase”.

The values above are taken from publication PMC7380196, “Unveiling the activation dynamics of a fold-switch bacterial glycosyltransferase by ^19F NMR” (The Journal of Biological Chemistry, 2020).
